The values that follow come from patent US10011635B2, “Cyclic peptide conjugates and methods of use” (priority 2013, dated 2018).

Numbered stars: 1 amine (or outer) side, 2 acyl side, 3 side chain; on linkers, the order of the positions; unused ones are H or OH. Bridge positions count the residues as written; N and C are the ends. Square brackets hold non-standard residues; d marks the D form. Peptide text beside a SMILES is read from it. * marks the point of attachment. dProlinol(O-CH2CO) = O=C(COC[C@H]1CCCN1[*:1])[*:2]; N(2-Aminoethyl)Gly = O=C(CN(CCN[*:3])[*:1])[*:2]; Nle = CCCC[C@H](N)C(=O)O; Ms = CS(=O)(=O)*

One data set deals with U266 cells. The experiment in a line: In vitro cytotoxicity, PI staining and flow cytometry (U266). The note with it: 1 hour at 37° C., PI staining, flow cytometry; compared to medium alone. Format: cell-based, human. A general note: In flow cytometry, cells or beads pass a laser one at a time.
In another data set the test system is H929 cells. Nature of the data set: In vitro cytotoxicity, PI staining, flow cytometry and microscopy (H929). Type of data set: cell-based, human. As to conditions: 1 hour at 37° C., flow cytometry, compared to medium alone.
For the next data set, the system named is 5TGM1 cells. The experiment in a line: 5TGM1 murine myeloma model in vivo (survival, serum IgG2b). The note with it: 5TGM1 i.v. in C57BL6/KaLwRij mice; i.v. once weekly for 3 weeks; 10 mg/kg Fc-Sec-MTI-101, 10 mg/kg Fc-stop or MTI-101 0.3285 mg/kg; n=5. As to the method: One million 5TGM1 cells were injected intravenously (i.v.) in C57BL6/KaLwRij mice. Mice injected i.v. were treated once weekly for 3 weeks with 10 mg/kg Fc-Sec-MTI-101, 10 mg/kg Fc-stop, or an equal payload of MTI-101 (0.3285 mg/kg). […] Medium survival was 35 days for control and MTI-101 IV equal payload, 26 days for […] and 62 days for Fc-Sec-MTI-101 (n=5 animals per group), as shown in FIG. 18B. IgG2b levels were measured by ELISA 28 days following tumor inoculation.
This is an excellent immune competent MM model in which drug response is monitored in the confines of the bone marrow microenvironment. […] 5TGM1 cells (1×10^6 in 100 μL of PBS) were injected intravenously (i.v.) into the tail vein of 6-week old C57 BL/KaLwRij mice (Harlen, Netherlands). Tumor was allowed to engraft for 10 days prior to the initiation of drug treatment.
To quantify tumor burden, blood was collected by submandibular bleeding and mice were monitored weekly by measuring 5TGM1 secreted IgG2b (paraprotein) in the serum by ELISA (FIG. 18B). Hind limb paralysis and hunching were considered as additional surrogate markers for morbidity.

Data set [1] can be described thus: Maximum tolerated dose of MTI-101. The arrangement: species or system C57 BL/KaLwRij mice. The note with it: mouse, in vivo, ip; i.p. 3× weekly for three weeks.
The subject of a further data set is multiple myeloma (MM). As to conditions: summary statement, no test described; cited from earlier work.

Method for H929 cells: FSC/SSC scatter densities distinguished live cells (right population) and dead cells (left population). This was confirmed by PI staining.
(§1) The cells were incubated with the conjugates and negative and positive controls for 1 hour at 37° C. followed by propidium iodide (PI) staining and flow cytometry analysis using FSC/SSC scatter densities and fluorescence to distinguish live and dead cells.
Method for U266 cells: as §1

Turning to `CCCC[C@@H]1NC(=O)CN(S(C)(=O)=O)CCNC(=O)[C@H](CCCCN)NC(=O)[C@H](CC(C)C)NC(=O)[C@H](CCCCN)NC(=O)[C@H](CC(C)C)NC(=O)[C@H](CCCCN)NC(=O)COC[C@H]2CCCN2C(=O)[C@H](Cc2c[nH]c3ccccc23)NC(=O)[C@H](C)NC(=O)[C@H](C(C)C)NC(=O)[C@H](C(C)C)NC1=O` [MTI-101] (Ms-[N(2-Aminoethyl)Gly][Nle]VVAW[dProlinol(O-CH2CO)]KLKLK; lactam 1-C), the “cytotoxicity toward U266 cells” value with U266 cells was “clearly killed”. The “cytotoxicity toward H929 cells” value in the data set with H929 cells is “clearly killed”. The compound further gave a Medium survival in the data set on 5TGM1 cells of 35 days. The maximal tolerated dose (MTD) (commonly the largest dose that counted as tolerated) in data set [1] is 10 mg/kg. Also, the IC50 potency entry with multiple myeloma (MM) is listed as “near nM”.
